The target in data set [1] is T1, PRPS1 (Homo sapiens, UniProt P60891).
T1 construct: full length
T1 sequence (P60891 2-318): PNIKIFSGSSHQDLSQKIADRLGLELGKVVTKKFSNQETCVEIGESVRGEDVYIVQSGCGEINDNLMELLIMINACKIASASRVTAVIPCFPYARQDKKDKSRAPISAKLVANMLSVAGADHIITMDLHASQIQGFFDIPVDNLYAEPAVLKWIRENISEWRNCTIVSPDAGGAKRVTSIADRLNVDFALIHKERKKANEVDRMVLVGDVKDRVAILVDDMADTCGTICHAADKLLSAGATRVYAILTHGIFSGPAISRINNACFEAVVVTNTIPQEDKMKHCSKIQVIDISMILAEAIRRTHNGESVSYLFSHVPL
As to the kind of experiment: steady-state kinetics, coupled assay at […] nm. The format is biochemical.

Data set [2] concerns the target T1, PRPS1. As to the kind of experiment: ITC; co-crystal structure with R5P, ApCpp, Cd2+; enzyme inhibition (IC50 […]). The format is binding. A general note: In ITC the heat of successive injections is recorded.
Data set [3] has as its target T2, PRPS2(-3AA/Q156K) (Homo sapiens, UniProt P11908, Q153K).
T2 construct: full length chimeric variant, 3AA (V103, G104, E105) deleted
T2 sequence (P11908 2-318 Q153K): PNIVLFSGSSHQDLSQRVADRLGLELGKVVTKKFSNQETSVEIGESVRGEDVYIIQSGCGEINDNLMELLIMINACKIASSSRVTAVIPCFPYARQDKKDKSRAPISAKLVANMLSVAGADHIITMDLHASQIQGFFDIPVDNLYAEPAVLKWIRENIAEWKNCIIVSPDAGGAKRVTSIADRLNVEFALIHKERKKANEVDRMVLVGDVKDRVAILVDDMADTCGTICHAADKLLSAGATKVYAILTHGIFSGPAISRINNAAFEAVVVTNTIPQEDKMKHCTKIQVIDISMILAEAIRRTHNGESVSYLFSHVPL
As to the kind of experiment: HPLC feedback inhibition assay (AMP production). The data set is classed as biochemical.

Data set [4] deals with the molecule itself. Description: crystal structure; co-crystallisation of 500 μM purified PRPS with ApCpp or GDP (1:5), R5P, crystals soaked in 1 mM CdCl2; 277 K.

With `Nc1ncnc2c1ncn2[C@@H]1O[C@H](COP(=O)(O)OP(=O)(O)OP(=O)(O)O)[C@@H](O)[C@H]1O` [ATP], the “steady-state kinetics, coupled assay at 340 nm” value in data set [1] was “The catalytic efficiencies of PRPS2 and PRPS1 on either ATP or R5P were characterized”.

The Kd is the constant that tells how readily two partners part at equilibrium. Low readings indicate higher affinity, high ones lower affinity. In turn, `Nc1nc2c(ncn2[C@@H]2O[C@H](CO[P@](=O)(O)OP(=O)(O)O)[C@@H](O)[C@H]2O)c(=O)[nH]1` [GDP] registered a Kd in data set [2] of 10 µM. The “HPLC feedback inhibition assay (AMP production)” value in data set [3] was “chimeric variants of PRPS1( + 3AA/K153Q) and PRPS2(-3AA/Q156K), which exhibited switched GDP feedback inhibition responses”.

B1: PRPS1( + 3AA), PRPS1 chimeric variant (enzyme, human, UniProt P60891 1-318, looked up)
chain: MPNIKIFSGSSHQDLSQKIADRLGLELGKVVTKKFSNQETCVEIGESVRGEDVYIVQSGCGEINDNLMELLIMINACKIASASRVTAVIPCFPYARQDKKDKVGESRAPISAKLVANMLSVAGADHIITMDLHASQIQGFFDIPVDNLYAEPAVLKWIRENISEWRNCTIVSPDAGGAKRVTSIADRLNVDFALIHKERKKANEVDRMVLVGDVKDRVAILVDDMADTCGTICHAADKLLSAGATRVYAILTHGIFSGPAISRINNACFEAVVVTNTIPQEDKMKHCSKIQVIDISMILAEAIRRTHNGESVSYLFSHVPL
notes: PRPS1, human, full length, with the three residues V, G, E of PRPS2 (V103, G104, E105) inserted into the corresponding position of Loop2; the C-terminal residue is then L321; Crystallised with R5P, ApCpp and Cd2+; also called PRPS1 chimera; source: E. coli BL21(DE3), purified (Ni-NTA, ion exchange, Superdex-200); not shown: His-Sumo, N-terminal, cleaved
Take B1: in data set [4], the binding result is on record as “binds”.

B2: recombinant PRPS2 (enzyme, human, UniProt P11908-2 1-321, looked up)
chain: MPNIVLFSGSSHQDLSQRVADRLGLELGKVVTKKFSNQETSVEIGESVRGEDVYIIQSGCGEINDNLMELLIMINACKIASSSRVTAVIPCFPYARQDKKDKVGESRAPISAKLVANMLSVAGADHIITMDLHASQIQGFFDIPVDNLYAEPAVLQWIRENIAEWKNCIIVSPDAGGAKRVTSIADRLNVEFALIHKERKKANEVDRMVLVGDVKDRVAILVDDMADTCGTICHAADKLLSAGATKVYAILTHGIFSGPAISRINNAAFEAVVVTNTIPQEDKMKHCTKIQVIDISMILAEAIRRTHNGESVSYLFSHVPL
notes: PRPS2, human, full-length gene synthesised and subcloned into pSumo; the form with V103, G104, E105 (3AA) in Loop2 and Q156, i.e. the 321-residue isoform; Crystallised with R5P, ApCpp and Cd2+; source: E. coli BL21(DE3), purified (Ni-NTA, ion exchange, Superdex-200); not shown: His-Sumo, N-terminal, cleaved
In the case of B2, in data set [4], the binding result was “binds”.
